{"source": "patent US9198909B1", "about": "“Materials and methods for inhibiting mamalian S-nitrosoglutathione reductase” (Indiana University Research and Technology Corporation, priority 2007, dated 2015)", "key": {"mouse aorta segments": {"system": "mouse aorta segments", "assay": "Wire myography, relaxation of aortic rings", "method": "Referring now to FIG. 5, mouse aorta segments were equilibrated in oxygenated PSS (95% O2 and 5% CO2) at 37° C. Following equilibration, 1 μM phenylephrine was added to each ring for submaximal contraction. After stabilization, increasing concentrations (10−9 M to 10−4 M) of either compound 8 or sodium nitroprusside (SNP) was added to the rings and the tone of the rings determined (B) Inhibition of compound 8 induced relaxation of aortal rings by nitric oxide synthase inhibitor, L-NAME. To pre-equilibrated and submaximally contracted aortal rings with phenylephrine (1 micromolar), LNAME (500 micromolar) was added to the bath and allowed to incubate for 30 minutes. […] Each experiment was performed using two rings from three different mice and the mean (±SEM) for each response determined.\nMice were anesthetized with diethyl ether. A thoracotomy was performed to expose thoracic and abdominal aorta. A 25 gauge syringe was inserted into the apex of left ventricle and perfused free of blood with oxygenated Krebs Henseleit buffer. The right atrium was cut to provide an exit for blood. The aorta was removed and cleaned of fat and adventitia. The aorta was cut into 2-mm-long segments and mounted on a four-channel wire myograph (AD Instruments). Vessel rings were maintained in 10-ml organ baths with oxygenated PSS (95% O2 and 5% CO2) at 37° C. Rings were allowed to equilibrate for 80 minutes with the buffer in each organ bath changed every 20 min. One gram pretension was placed on each aortic ring (appropriate starting tension for optimal vasomotor function as determined in previous experiments). An eight-channel octal bridge (Powerlab) and data-acquisition software (Chart version 5.2.2) were used to record all force measurements. After equilibration for 80 min, 1 μM 27 phenylephrine was added to each ring for submaximal contraction. After stabilization, either compound 8 or sodium nitroprusside (SNP) was added to the rings and the tone of the rings determined. For the determination of SNP and ACh dose-response relationships, aortic rings were precontracted with 10−6 M PE, and SNP or compound 8 was then added in increasing concentrations from 10−9 M to 10−4 M. In a subset of experiments, L-NAME was added (500 μM final) to the bath and allowed to incubate for 30 minutes. After 30 minutes, compound 8 was added and the tone of the rings determined as described above."}, "GSNOR•NADH complex": {"target": "T1, GSNOR•NADH complex (Homo sapiens, UniProt P11766)", "T1 construct": "made in house; host or cells: E. coli", "T1 sequence (P11766 2-374 limits assumed, one chain of several)": "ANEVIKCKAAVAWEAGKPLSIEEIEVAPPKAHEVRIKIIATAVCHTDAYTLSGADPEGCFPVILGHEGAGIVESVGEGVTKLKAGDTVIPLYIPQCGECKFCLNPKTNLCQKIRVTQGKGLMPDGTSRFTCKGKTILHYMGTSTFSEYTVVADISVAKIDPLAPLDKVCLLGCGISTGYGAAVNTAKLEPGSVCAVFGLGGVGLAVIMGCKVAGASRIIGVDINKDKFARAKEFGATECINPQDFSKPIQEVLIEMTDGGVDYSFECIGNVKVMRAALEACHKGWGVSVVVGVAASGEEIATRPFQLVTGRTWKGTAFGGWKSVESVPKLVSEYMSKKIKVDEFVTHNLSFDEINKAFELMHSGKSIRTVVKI", "assay": "Fluorescence equilibrium binding to GSNOR•NADH complex", "details": "1.7 μM NADH, 2 μM GSNOR, 50 μM compound 8", "method": "Referring now to FIG. 2, (A) Changes in the fluorescence of NADH (curve a) upon sequential addition of GSNOR (curve b) and compound 8 (curve c). To a solution of 1.7 μM NADH were added 2 μM GSNOR and 50 μM compound 8 in sequence and the fluorescence of the solution measured each time (λexc=350 nm; λemm=375-550 nm); (B) Changes in the fluorescence of NADH (curve a) upon sequential addition of GSNOR (curve b), 12-HDDA (curve c) and compound 8 (curve d). To a solution of 1.7 μM NADH were added 2 μM GSNOR, 810 μM 12-HDDA and 50 μM compound 8 in sequence and the fluorescence measured each time (λexc=350 nm; λemm=375-550 nm); (C) Binding of compound 8 to GSNOR•NADH complex. The change in fluorescence of a 1.7 μM NADH and 2 μM GSNOR mixture (λexc=350 nm; λemm=455 nm) with increasing concentrations of compound 8 was fitted to a single site binding model (equation 1; see materials and methods) using the Graphpad Prizm 4. All of the fluorescence studies were conducted at room temperature in 50 mM potassium phosphate pH 7.5.\nReferring now to Table 3, inhibition experiments were performed at 25° C. in 50 mM potassium phosphate (pH 7.5) including 0.1 mM EDTA. […] The dissociation constant was measured at 25° C. in 50 mM potassium phosphate pH 7.5. […]\nFluorescence studies were conducted in 50 mM potassium phosphate pH 7.5, at room temperature using a Fluoromax-2 fluorescence spectrometer (Instruments S.A., Inc., Edison, N.J.). The equilibrium dissociation constant of GSNOR inhibitors was determined by measuring the changes in the fluorescence of GSNOR bound NADH (λexc=350 nm; λemm=455 nm) upon the addition of inhibitor. […] The decrease in fluorescence at 455 nm with each addition of inhibitor was plotted against the final concentration of inhibitor and the data were fitted to equation 1 using nonlinear regression to obtain the dissociation constant of the inhibitor for GSNOR-NADH complex,\n[formula] In equation 1, ΔF is the change in the fluorescence at 455 nm upon the addition of inhibitor. ΔFM is the maximum fluorescence change that was obtained from curve fitting. […]"}, "RAW 264.7 cells": {"system": "RAW 264.7 cells", "assay": "s-Nitrosothiol accumulation in RAW 264.7 cells, biotin switch assay", "assay_type": "cell-based, rat", "method": "Referring now to FIG. 4, RAW 264.7 cells were cultured in DMEM containing 10% heat-inactivated serum. Cells were treated with 33 μM of Compound 8 for 0, 2, 4, 8, or 24 h alone or in combination with 1 mM NAME for 4 h (lane 4+N). At indicated times, the cells were quenched and the lysate was analyzed for s-nitrosothiol content by the biotin switch assay.\nRAW 264.7 cells were cultured in 10% heat-inactivated serum containing DMEM. Cells were treated with 33 micromolar compound 8 for varied lengths of time alone or in combination with 1 mM NAME for 4 h (4+N). […] Briefly, free sulfydryls in ˜200 μg of cell lysate were blocked with 20 mM MMTS in 1 ml of HEN buffer (250 mM HEPES pH 7.7 containing 1 mM EDTA and 0.1 mM Neocupronine) containing 2% SDS at 50° C. for 20 min. Free MMTS was removed by gel-filtration spin columns and the blocked proteins were labeled with 1 mM Biotin-HPDP (Pierce) in presence or absence of 30 mM ascorbate and 2 μM CuCl for 2.5 hours."}, "[1]": {"details": "direct comparison with sodium nitroprusside"}}, "note": "pEC50: −log10 of the molar value."}
{"smiles": "N#Cc1ccccc1CSc1nc2ccsc2c(=O)n1Cc1ccc(C(=O)O)cc1", "note": "[Compound 8]", "values": [{"measurement": "time to begin relaxation", "setting": "mouse aorta segments", "value": "around 3 minutes"}, {"measurement": "duration of sustained vessel relaxation", "setting": "mouse aorta segments; 50 μM", "value": "up to 2 hours"}, {"measurement": "relaxation of the vessels", "setting": "mouse aorta segments; 50 μM", "value": "completely relaxed"}, {"measurement": "time to complete relaxation", "setting": "mouse aorta segments; 50 μM", "value": "≤ 15", "unit": "min"}, {"measurement": "inhibition of vasorelaxation by L-NAME preincubation", "setting": "mouse aorta segments; 500 μM L-NAME for 30 minutes, then 50 μM compound 8", "value": "roughly 58%"}, {"measurement": "duration of the effect compared with SNP", "setting": "mouse aorta segments; [1]", "value": "much longer than with SNP"}, {"measurement": "potency at relaxing vascular smooth muscle compared with SNP", "setting": "mouse aorta segments; [1]", "value": "less potent than SNP"}, {"measurement": "pEC50", "setting": "mouse aorta segments; rings precontracted with 1 μM phenylephrine, read-out: EC50 of vessel relaxation", "value": 5.30}, {"measurement": "effect on fluorescence of GSNOR bound NADH", "setting": "GSNOR•NADH complex", "value": "decreased the fluorescence of NADH"}, {"measurement": "effect on GSNOR•NADH•12-HDDA complex (displacement of 12-HDDA)", "setting": "GSNOR•NADH complex; 810 μM 12-HDDA", "value": "displaced 12-HDDA from the active site"}, {"measurement": "time of peak effect on nitrosylation of cellular proteins", "setting": "RAW 264.7 cells; 33 μM", "value": "around 8 hours"}, {"measurement": "time to decrease to normal nitrosylation levels", "setting": "RAW 264.7 cells; 33 μM", "value": "≤ 24", "unit": "h"}, {"measurement": "accumulation of SNOs with simultaneous L-NAME", "setting": "RAW 264.7 cells; 33 μM compound 8 + 1 mM NAME, 4 h", "value": "less"}, {"measurement": "nitrosylation of cellular proteins", "setting": "RAW 264.7 cells; 33 μM, 0-24 h", "value": "increased the nitrosylation of cellular proteins with time"}]}
